{"source": "patent US20230277560A1", "about": "“USE OF C[…] THE TREATMENT OF SEIZURES ASSOCIATED WITH CHRNA4 MUTATION” (GW Research Limited, priority 2020, published 2023)", "test_system": "seizures associated with CHRNA4 mutation", "experiment": "Open label, expanded-access program: seizure frequency in a patient with CHRNA4 mutation", "type": "in vivo, human", "conditions": "for Seizure frequency, Absence: baseline 0.0; for Seizure frequency, Absence / Seizure frequency, Tonic-clonic / Seizure frequency, Atonic / Seizure frequency, Myoclonic: concomitant rufinamide; for Seizure frequency, Tonic-clonic: baseline 0.4; for Seizure frequency, Atonic / Seizure frequency, Myoclonic: baseline 2800.0", "method": "The subject was required to be on one or more AEDs at stable doses for a minimum of two weeks prior to baseline and to have stable vagus nerve stimulation (VNS) settings and ketogenic diet ratios for a minimum of four weeks prior to baseline.\nThe patient was administered botanically derived purified CBD in a 100 mg/mL sesame oil-based solution. Dose was increased to a goal of 25 mg/kg/day.\nA maximum dose of 50 mg/kg/day could be utilised for the patient if they were tolerating the medication but had not achieved seizure control; the patient had further weekly titration by 5 mg/kg/day.\nThere was one patient in this study, and they received CBD for 24 weeks. Modifications were made to concomitant AEDs as per clinical indication.\nSeizure frequency, intensity, and duration were recorded by caregivers in a diary during a baseline period of at least 28 days. Changes in seizure frequency relative to baseline were calculated after at least 2 weeks and at defined timepoints of treatment.\nPatients may be defined as responders if they had more than 50% reduction in seizure frequency compared to baseline. The percent change in seizure frequency was calculated as follows: […]\nThe percent change of seizure frequency may be calculated for any time interval where seizure number has been recorded. For the purpose of this example the percent change of seizure frequency for the end of the treatment period was calculated as follows: […]", "key": {"[1]": {"conditions": "Patient 1, 4 weeks, CBD 15.0 mg/kg/day"}, "[2]": {"conditions": "Patient 1, 8 weeks, CBD 25.0 mg/kg/day"}, "[3]": {"conditions": "Patient 1, 12 weeks, CBD 25.0 mg/kg/day"}, "[4]": {"conditions": "Patient 1, 16 weeks, CBD 25.0 mg/kg/day"}, "[5]": {"conditions": "Patient 1, 24 weeks, CBD 23.8 mg/kg/day"}, "[6]": {"conditions": "Patient 1, treated for 24 weeks, relative to baseline"}}}
{"compound": "C=C(C)[C@@H]1CCC(C)=C[C@H]1c1c(O)cc(CCCCC)cc1O", "note": "[CBD, cannabidiol]", "values": [{"measurement": "Seizure frequency, Absence", "setting": "[1]", "result": 0.0}, {"measurement": "Seizure frequency, Tonic-clonic", "setting": "[1]", "result": 1.0}, {"measurement": "Seizure frequency, Atonic", "setting": "[1]", "result": 2800.0}, {"measurement": "Seizure frequency, Myoclonic", "setting": "[1]", "result": 2800.0}, {"measurement": "Seizure frequency, Absence", "setting": "[2]", "result": 0.0}, {"measurement": "Seizure frequency, Tonic-clonic", "setting": "[2]", "result": 0.0}, {"measurement": "Seizure frequency, Atonic", "setting": "[2]", "result": 2800.0}, {"measurement": "Seizure frequency, Myoclonic", "setting": "[2]", "result": 2800.0}, {"measurement": "Seizure frequency, Absence", "setting": "[3]", "result": 0.0}, {"measurement": "Seizure frequency, Tonic-clonic", "setting": "[3]", "result": 1.0}, {"measurement": "Seizure frequency, Atonic", "setting": "[3]", "result": 2561.0}, {"measurement": "Seizure frequency, Myoclonic", "setting": "[3]", "result": 2560.0}, {"measurement": "Seizure frequency, Absence", "setting": "[4]", "result": 84.0}, {"measurement": "Seizure frequency, Tonic-clonic", "setting": "[4]", "result": 3.0}, {"measurement": "Seizure frequency, Atonic", "setting": "[4]", "result": 1260.0}, {"measurement": "Seizure frequency, Myoclonic", "setting": "[4]", "result": 840.0}, {"measurement": "frequency of atonic and myoclonic seizures (overall statement)", "setting": "Patient 1, 24 weeks treatment", "result": "effective in reducing the frequency"}, {"measurement": "Seizure frequency, Absence", "setting": "[5]", "result": 140.0}, {"measurement": "Seizure frequency, Tonic-clonic", "setting": "[5]", "result": 18.7}, {"measurement": "Seizure frequency, Atonic", "setting": "[5]", "result": 840.0}, {"measurement": "Seizure frequency, Myoclonic", "setting": "[5]", "result": 840.0}, {"measurement": "reduction in atonic seizures over the treatment period", "setting": "[6]", "result": 70, "unit": "%"}, {"measurement": "reduction in myoclonic seizures over the treatment period", "setting": "[6]", "result": 70, "unit": "%"}, {"measurement": "number of seizures associated with CHRNA4 mutation (conclusion)", "setting": "one patient, 24 weeks treatment", "result": "significantly reduce"}, {"measurement": "tonic-clonic, atonic, myoclonic and absence seizures (summary statement)", "setting": "open label, expanded-access program, patients with CHRNA4 mutation", "result": "significant reduction"}]}
